Data as given in patent publication US20060069157A1, “Method of ameliorating or abrogating the effects of a neurodegenerative disorder, such as Huntington's disease, by sodium butyrate chemotherapy” (U.S. DEPARTMENT OF VETERANS AFFAIRS, priority 2004, published 2006).

Experiments:
[1] = tested on: acetylated histone H3 and acetylated histone H4; experiment: Histone acetylation assay (Western blot, whole brain); assay type: in vivo, mouse
Experimental: Histone Acetylation Assay: At 42 days, groups of 10 R6/2 mice and littermate wild-type control mice were treated with daily with the most optimal dose of sodium butyrate (1.2 g/kg), as determined by survival studies, or PBS via intraperitoneal injections for two weeks. The mice were euthanized at 56 days of age and the brains rapidly frozen and stored at −80 βC. Histone acetylation was determined, using a previously reported Western analysis method (Warrel et al., 1998). Histones were isolated from sodium butyrate treated and untreated whole brains. Western blot analysis for histone acetylation was performed using acetylated histone H3 and acetylated histone H4 antibodies (Upstate Biotechnology, Lake Placid, N.Y.). Protein levels were determined via Coomassie Protein Assay (Pierce, Rockford, Ill.). Each of the sample measurements was carried out twice, with the investigator performing the assays (JKK) blind to genotype and treatment group.

huntingtin transgene = experiment: Transgene expression (Western blot, whole brain, 1C2 antibody); assay type: in vivo, mouse; conditions: 1.2 g/kg/d; R6/2 whole brain; vs PBS-treated R6/2
Experimental: Transgene Expression: Transgene expression was determined in whole brain by Western blot analysis of groups (n=6) of sodium butyrate-treated (1.2 g/kg/d) and untreated R6/2 mice. Brain tissue was homogenized in a protease inhibitor cocktail buffer (Complete, Roche). Twenty Êg of protein (supernatant fraction) was resolved on 10% SDS-polyacrylamide gel (BioRad), transferred to PVDF membrane (BioRad), and probed with 1C2 antibody (Euromedex, France) specific for regions of expanded huntingtin, using a horseradish conjugated anti-rabbit secondary antibody, followed by chemiluminescent detection (Western Lightening™, New England Nuclear), and run with parallel blots probed against (-tubulin to normalize for gel loading.

For CCCC(=O)[O-].[Na+] [sodium butyrate], the “difference in increased acetylation of H3 and H4 between doses” value ([1]; 600 mg/kg/d vs 1.2 g/kg/d) was “did not observe any difference”, the “H3 and H4 acetylation (Western blot)” value ([1]; 1.2 g/kg/d i.p. for two weeks from 42 days, R6/2 brain at 56 days) was “marked increase” and the huntingtin transprotein expression-levels (huntingtin transgene) was “no differences”.
